Source: patent publication US20060276464A1, “Diarylsulfone sulfonamides and use thereof” (Wyeth, priority 2005, published 2006)
Several values for one entry are separate records, joined by “and”; a condition that tells them apart may be missing. Identical values can stand only once. Like-named read-outs stand apart in the source and are kept apart here.

Assays:
[1] = molecular target: T1, SFRP-1 (Homo sapiens, UniProt Q8N474); assay: Fluorescence polarization binding assay (competitive displacement of a probe compound from SFRP-1); settings: fluorescence anisotropy, 45 nM SFRP-1, 20 nM probe;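 also: test compound competes with a fluorescent probe held by SFRP-1, seen as a drop in probe anisotropy after incubation in darkness, with anisotropy as function of rising compound dose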
T1 sequence (Q8N474 32-314): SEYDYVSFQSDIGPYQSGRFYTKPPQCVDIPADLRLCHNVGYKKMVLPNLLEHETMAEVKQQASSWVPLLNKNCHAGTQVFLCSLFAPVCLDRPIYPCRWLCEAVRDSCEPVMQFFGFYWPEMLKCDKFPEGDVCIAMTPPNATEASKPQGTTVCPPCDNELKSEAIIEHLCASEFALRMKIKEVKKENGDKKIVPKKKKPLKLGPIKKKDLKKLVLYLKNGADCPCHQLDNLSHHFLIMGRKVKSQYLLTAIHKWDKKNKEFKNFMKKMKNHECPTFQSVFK

[2] = molecular target: T1, SFRP-1; assay: Cell-based assay for in vitro measurement of SFRP-1/SARP2 antagonist activity (U2OS cells co-transfected with 16x TCF-tk-Luciferase reporter, Wnt and hSFRP-1); settings: for fold induction at 15 µM / fold induction at 10 µM: U2OS; for fold induction at 15 µM: single dose, luciferase reporter; for fold induction at 10 µM: read-out: Fold Induction with SFRP-1, U2OS cells, single dose 10 μM, luciferase reporter, fold induction over SFRP-1 control;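 as to all read-outs here: U2OS cells co-transfected with a TCF-tk luciferase reporter, a Wnt vector, hSFRP-1 or empty vector and CMV-βgal, luciferase luminescence read in cell lysates alongside βgal activity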
[3] = read-out: Fold Induction with SFRP-1, Conc 15 μM, fold induction over SFRP-1 control, cells with SFRP-1
[4] = read-out: Fold Induction without SFRP-1, Conc 15 μM, cells without SFRP-1 (specificity control)

IC50 [1] | fold induction at 15 µM [2, 3] | fold induction at 15 µM [2, 4] | EC50 [2] | fold induction at 10 µM [2] | Compound
3000 nM | 2.2 | 1.1 |  |  | CC(C)c1ccc(S(=O)(=O)c2ccc(N3CCN(C(=O)OC(C)(C)C)CC3)cc2)cc1S(=O)(=O)NC1CCOCC1 [Example 625, tert-butyl 4-[4-({4-isopropyl-3-[(tetrahydro-2H-pyran-4-ylamino)sulfonyl]phenyl}sulfonyl)phenyl]piperazine-1-carboxylate]
4000 nM | 2.9 | 1.1 |  |  | CC(C)c1ccc(S(=O)(=O)c2ccc(N3C[C@@H](C)N[C@@H](C)C3)cc2)cc1S(=O)(=O)NC1CCOCC1 [Example 626, 5-({4-cis-3,5-dimethylpiperazin-1-ylphenyl}sulfonyl)-2-isopropyl-N-(tetrahydro-2H-pyran-4-yl)benzenesulfonamide]
3000 nM | 3.2 | 1.1 |  |  | CC(C)c1ccc(S(=O)(=O)c2ccc(N3CCNCC3)cc2)cc1S(=O)(=O)NC1CCOCC1 [Example 628, 2-isopropyl-5-[(4-piperazin-1-ylphenyl)sulfonyl]-N-(tetrahydro-2H-pyran-4-yl)benzenesulfonamide]
1200 nM | 3.5 | 1.2 |  |  | O=S(=O)(NCCc1cccnc1)c1cc(S(=O)(=O)c2ccccc2)ccc1Cl [Example 640, 2-chloro-5-(phenylsulfonyl)-N-(2-pyridin-3-ylethyl)benzenesulfonamide]
1100 nM | 3 | 1 |  |  | O=S(=O)(NCCc1ccncc1)c1cc(S(=O)(=O)c2ccccc2)ccc1Cl [Example 641, 2-chloro-5-(phenylsulfonyl)-N-(2-pyridin-4-ylethyl)benzenesulfonamide]
2400 nM | 3.2 | 1 |  |  | N#CCCNS(=O)(=O)c1cc(S(=O)(=O)c2ccccc2)ccc1Cl [Example 643, 2-chloro-N-(2-cyanoethyl)-5-(phenylsulfonyl)benzenesulfonamide]
1400 nM | 3.9 | 1.1 |  |  | O=C(N1CCC(NS(=O)(=O)c2cc(S(=O)(=O)c3ccccc3)ccc2Cl)CC1)C(F)(F)F [Example 647, 2-chloro-5-(phenylsulfonyl)-N-[1-(trifluoroacetyl)piperidin-4-yl]benzenesulfonamide]
5000 nM | 2.9 | 1.1 |  |  | CC(C)(C)C(=O)N1CCC(NS(=O)(=O)c2cc(S(=O)(=O)c3ccccc3)ccc2Cl)CC1 [Example 648, 2-chloro-N-[1-(2,2-dimethylpropanoyl)piperidin-4-yl]-5-(phenylsulfonyl)benzenesulfonamide]
1600 nM | 3 | 1.1 |  |  | CC(C)(C)NC(=O)N1CCC(NS(=O)(=O)c2cc(S(=O)(=O)c3ccccc3)ccc2Cl)CC1 [Example 649, N-(tert-butyl)-4-({[2-chloro-5-(phenylsulfonyl)phenyl]sulfonyl}amino)piperidine-1-carboxamide]
10000 nM | 3.4 | 1.1 |  |  | O=C(N1CCOCC1)N1CCC(NS(=O)(=O)c2cc(S(=O)(=O)c3ccccc3)ccc2Cl)CC1 [Example 650, 2-chloro-N-[1-(morpholin-4-ylcarbonyl)piperidin-4-yl]-5-(phenylsulfonyl)benzenesulfonamide]
400 nM | 2.9 | 0.9 |  |  | N#CN1CCC(NS(=O)(=O)c2cc(S(=O)(=O)c3ccccc3)ccc2Cl)CC1 [Example 651, 2-chloro-N-(1-cyanopiperidin-4-yl)-5-(phenylsulfonyl)benzenesulfonamide]
800 nM and 700 nM | 3.8 | 1 |  |  | CC(C)c1ccc(S(=O)(=O)c2ccc(F)cc2)cc1S(=O)(=O)NCCc1ccc[n+]([O-])c1 [Example 652, 5-[(4-fluorophenyl)sulfonyl]-2-isopropyl-N-[2-(1-oxidopyridin-3-yl)ethyl]benzenesulfonamide]
2800 nM |  |  | 11700 nM | 2.2 | O=C(c1ccc(F)cc1)N1CCC(NS(=O)(=O)c2cc(S(=O)(=O)c3ccccc3)ccc2Cl)CC1 [Example 656, 2-chloro-N-[1-(4-fluorobenzoyl)piperidin-4-yl]-5-(phenylsulfonyl)benzenesulfonamide]
2400 nM |  |  | 9030 nM | 2.4 | N#Cc1ccc(C(=O)N2CCC(NS(=O)(=O)c3cc(S(=O)(=O)c4ccccc4)ccc3Cl)CC2)cc1 [Example 657, 2-chloro-N-[1-(4-cyanobenzoyl)piperidin-4-yl]-5-(phenylsulfonyl)benzenesulfonamide]
800 nM |  |  | 6350 nM | 2.6 | O=C(c1ccc(C(F)(F)F)cc1)N1CCC(NS(=O)(=O)c2cc(S(=O)(=O)c3ccccc3)ccc2Cl)CC1 [Example 658, 2-chloro-5-(phenylsulfonyl)-N-{1-[4-(trifluoromethyl)benzoyl]piperidin-4-yl}benzenesulfonamide]
2400 nM |  |  | 3720 nM | 4.9 | O=S(=O)(NCCc1cccnc1)c1cc(S(=O)(=O)c2ccccc2)ccc1OC(F)(F)F [Example 660, 5-(phenylsulfonyl)-N-(2-pyridin-3-ylethyl)-2-(trifluoromethoxy)benzenesulfonamide]
4000 nM |  |  | 17600 nM | 3.3 | O=S(=O)(NC1CCOCC1)c1cc(S(=O)(=O)c2ccccc2)ccc1OC(F)(F)F [Example 662, 5-(phenylsulfonyl)-N-(tetrahydro-2H-pyran-4-yl)-2-(trifluoromethoxy)benzenesulfonamide]
1700 nM |  |  | 2990 nM | 3.9 | CC(C)c1ccc(S(=O)(=O)c2ccc(F)cc2)cc1S(=O)(=O)NCCC#N [Example 664, N-(2-cyanoethyl)-5-[(4-fluorophenyl)sulfonyl]-2-isopropylbenzenesulfonamide]
800 nM |  |  | 2830 nM | 3.2 | CC(C)c1ccc(S(=O)(=O)c2ccccc2)cc1S(=O)(=O)NC1CCOCC1 [Example 670, 2-isopropyl-5-(phenylsulfonyl)-N-(tetrahydro-2H-pyran-4-yl)benzenesulfonamide]
400 nM |  |  | 1580 nM | 3.6 | CC(C)c1ccc(S(=O)(=O)c2ccccc2)cc1S(=O)(=O)NCCc1ccccn1 [Example 671, 2-isopropyl-5-(phenylsulfonyl)-N-(2-pyridin-2-ylethyl)benzenesulfonamide]
300 nM |  |  | 3120 nM | 4.2 | CC(C)c1ccc(S(=O)(=O)c2ccccc2)cc1S(=O)(=O)NCCc1cccnc1 [Example 672, 2-isopropyl-5-(phenylsulfonyl)-N-(2-pyridin-3-ylethyl)benzenesulfonamide]
160 nM |  |  | 489 nM | 3.8 | O=S(=O)(NCCc1cccnc1)c1cc(S(=O)(=O)c2ccccc2)ccc1C(F)(F)F [Example 677, 5-(phenylsulfonyl)-N-(2-pyridin-3-ylethyl)-2-(trifluoromethyl)benzenesulfonamide]
250 nM |  |  | 449 nM | 3.4 | N#CCCNS(=O)(=O)c1cc(S(=O)(=O)c2ccccc2)ccc1C(F)(F)F [Example 679, N-(2-cyanoethyl)-5-(phenylsulfonyl)-2-(trifluoromethyl)benzenesulfonamide]
1100 nM |  |  | 4300 nM | 3.4 | O=S(=O)(NCCO)c1cc(S(=O)(=O)c2ccccc2)ccc1C(F)(F)F [Example 681, N-(2-hydroxyethyl)-5-(phenylsulfonyl)-2-(trifluoromethyl)benzenesulfonamide]
250 nM |  |  | 765 nM | 1.2 | O=S(=O)(NCC(O)c1ccccc1)c1cc(S(=O)(=O)c2ccccc2)ccc1C(F)(F)F (stereo not drawn) [Example 682, N-(2-hydroxy-2-phenylethyl)-5-(phenylsulfonyl)-2-(trifluoromethyl)benzenesulfonamide]
1200 nM |  |  | 3100 nM | 3.7 | CC(CO)NS(=O)(=O)c1cc(S(=O)(=O)c2ccccc2)ccc1C(F)(F)F (stereo not drawn) [Example 683, N-(2-hydroxy-1-methylethyl)-5-(phenylsulfonyl)-2-(trifluoromethyl)benzenesulfonamide]
500 nM |  |  | 1750 nM | 3.5 | C[C@@H](NS(=O)(=O)c1cc(S(=O)(=O)c2ccccc2)ccc1C(F)(F)F)[C@@H](O)c1ccccc1 [Example 686, N-[(1R,2S)-2-hydroxy-1-methyl-2-phenylethyl]-5-(phenylsulfonyl)-2-(trifluoromethyl)benzenesulfonamide]
500 nM |  |  | 261 nM | 3.2 | CC(C)(C)OC(=O)N1CCC(NS(=O)(=O)c2cc(S(=O)(=O)c3ccccc3)ccc2C(F)(F)F)CC1 [Example 687, tert-butyl 4-({[5-(phenylsulfonyl)-2-(trifluoromethyl)phenyl]sulfonyl}amino)piperidine-1-carboxylate]
